We go through 23 compounds from PubChem BioAssay AID328 (DTP/NCI, 2004).

The structures appear in SMILES notation. “And” between values parts separate entries of the source, which are not always exact repeats. Identical values can stand only once. Inconclusive results and toxic doses are left out.

The test system of this assay is BDF1 mice, P388 leukemia ip, median survival T/C. The assay can be described thus: NCI In Vivo Anticancer Drug Screen. Data for tumor model P388 Leukemia (intraperitoneal) in B6D2F1 (BDF1) mice. Particulars: endpoint: median survival time, higher = longer survival. In short, it runs like this: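 Reported as T/C, where T is the survival measurement in dosed animals and C the same measurement in vehicle controls.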

Setting [1] is: dose: 100.0 mg/kg/injection, schedule: Q04DX003 (ip), vehicle: Klucel (hydroxypropylcellulose) (HPC).
[2] abbreviates: dose: 12.5 mg/kg/injection, schedule: Q01DX009 (ip), vehicle: saline with Tween-80.
The mark [3] stands for this setting: dose: 50.0 mg/kg/injection, schedule: Q01DX009 (ip), vehicle: saline with Tween-80.
Where [4] appears, read: dose: 100.0 mg/kg/injection, schedule: Q01DX009 (ip), vehicle: saline with Tween-80.
Setting [5] is: dose: 50.0 mg/kg/injection, schedule: Q01DX005 (ip), vehicle: saline with Tween-80.
The mark [6] stands for this setting: dose: 100.0 mg/kg/injection, schedule: Q01DX005 (ip), vehicle: saline with Tween-80.
Where [7] appears, read: dose: 200.0 mg/kg/injection, schedule: Q01DX005 (ip), vehicle: saline with Tween-80.
Where [8] appears, read: dose: 100.0 mg/kg/injection, schedule: Q04DX003 (ip), vehicle: saline with Tween-80.
[9] abbreviates: dose: 200.0 mg/kg/injection, schedule: Q04DX003 (ip), vehicle: saline with Tween-80.
Setting [10] is: dose: 400.0 mg/kg/injection, schedule: Q04DX003 (ip), vehicle: saline with Tween-80.
[11] abbreviates: dose: 200.0 mg/kg/injection, schedule: Q01DX009 (ip), vehicle: saline with Tween-80.
Where [12] appears, read: dose: 25.0 mg/kg/injection, schedule: Q01DX009 (ip), vehicle: saline with Tween-80.

Turning to `CCc1oc(=O)c(Cc2c(O)cc(O)c3c2OC(c2ccccc2)CC3=O)c(O)c1C` (stereo unspecified), the T/C reads like this: (dose: 4.0 mg/kg/injection, schedule: Q01DX009 (ip), vehicle: Klucel (hydroxypropylcellulose) (HPC)) 95 % of control; (dose: 8.0 mg/kg/injection, schedule: Q01DX009 (ip), vehicle: Klucel (hydroxypropylcellulose) (HPC)) 100 % of control; (dose: 16.0 mg/kg/injection, schedule: Q01DX009 (ip), vehicle: Klucel (hydroxypropylcellulose) (HPC)) 93 % of control; (dose: 32.0 mg/kg/injection, schedule: Q01DX009 (ip), vehicle: Klucel (hydroxypropylcellulose) (HPC)) 93 % of control.

Take `O=C(OC(c1ccccc1)c1ccccc1)C(CSC(c1ccccc1)(c1ccccc1)c1ccccc1)NC(c1ccccc1)(c1ccccc1)c1ccccc1` (stereo unspecified): the T/C runs as follows: under setting [1], 100 % of control; (dose: 200.0 mg/kg/injection, schedule: Q04DX003 (ip), vehicle: Klucel (hydroxypropylcellulose) (HPC)) 109 % of control; (dose: 400.0 mg/kg/injection, schedule: Q04DX003 (ip), vehicle: Klucel (hydroxypropylcellulose) (HPC)) 104 % of control.

Consider `O=[N+]([O-])c1ccc(S(=O)(=O)c2ccccc2)c2c1no[n+]2[O-]`, for which the T/C is 109 % of control (dose: 10.0 mg/kg/injection, schedule: Q01DX009 (ip), vehicle: saline with Tween-80); 106 % of control (dose: 20.0 mg/kg/injection, schedule: Q01DX009 (ip), vehicle: saline with Tween-80); 106 % of control (dose: 40.0 mg/kg/injection, schedule: Q01DX009 (ip), vehicle: saline with Tween-80).

Regarding `CN=S(=O)(OCCCCCCCCCOS(=O)(=NC)c1ccc(C)cc1)c1ccc(C)cc1` (stereo unspecified), the T/C was 108 % of control under setting [2] and 117 % of control under setting [3].

For the compound `O=C(NC(=O)c1c(F)cccc1F)Nc1ccc(Cl)nc1`, the T/C under setting [4] is 91 % of control.

On to `CC(=O)Oc1cccnc1C(C#N)C(C)=O` (stereo unspecified), for which the T/C was 90 % of control under setting [5], 99 % of control under setting [6] and 87 % of control under setting [7].

In the case of `CCCCNC(C)(C)C(SS)c1ccc(C(F)(F)F)cc1` (stereo unspecified), the T/C reads like this: (dose: 6.25 mg/kg/injection, schedule: Q04DX003 (ip), vehicle: other) 100 % of control; (dose: 12.5 mg/kg/injection, schedule: Q04DX003 (ip), vehicle: other) 105 % of control; (dose: 25.0 mg/kg/injection, schedule: Q04DX003 (ip), vehicle: other) 110 % of control.

For the compound `O=C1OI(OI2OC(=O)c3ccccc32)c2ccccc21` (tested in a mixture with another compound), the T/C is, setting by setting: (dose: 50.0 mg/kg/injection, schedule: Q01DX001 (ip), vehicle: saline with Tween-80) 101 % of control; (dose: 100.0 mg/kg/injection, schedule: Q01DX001 (ip), vehicle: saline with Tween-80) 101 % of control and 103 % of control; (dose: 200.0 mg/kg/injection, schedule: Q01DX001 (ip), vehicle: saline with Tween-80) 108 % of control and 120 % of control; (dose: 400.0 mg/kg/injection, schedule: Q01DX001 (ip), vehicle: saline with Tween-80) 117 % of control and 124 % of control.

On to `COc1ccc(/C(C)=C\C(=O)O)cc1`, for which the T/C under setting [8] was 100 % of control, the T/C under setting [9] is 100 % of control and the T/C under setting [10] was 95 % of control.

`O=C1NC(=O)C2C3C=CC(C12)C1C2C(=O)NC(=O)C2C31` (stereo unspecified): the T/C was 108 % of control under setting [2] and 168 % of control under setting [3].

Regarding `N#Cc1cnn(CCO)c1N`, the T/C (dose: 100.0 mg/kg/injection, schedule: Q01DX009 (ip), vehicle: water) is 90 % of control; the T/C (dose: 100.0 mg/kg/injection, schedule: Q04DX003 (ip), vehicle: water) was 100 % of control; the T/C (dose: 200.0 mg/kg/injection, schedule: Q01DX009 (ip), vehicle: water) was 113 % of control; the T/C (dose: 200.0 mg/kg/injection, schedule: Q04DX003 (ip), vehicle: water) was 100 % of control; the T/C (dose: 400.0 mg/kg/injection, schedule: Q01DX009 (ip), vehicle: water) is 109 % of control; the T/C (dose: 400.0 mg/kg/injection, schedule: Q04DX003 (ip), vehicle: water) was 104 % of control.

On to `CCN(CC)CC(=O)Nc1ccc(Cl)cc1Cc1ccccc1`, for which the T/C reads like this: under setting [3], 110 % of control; under setting [4], 106 % of control; under setting [11], 105 % of control.

Regarding `CCCCCCCCCCCCCCCCOc1ccc(Cl)cc1`, the T/C was 109 % of control (dose: 25.0 mg/kg/injection, schedule: Q01DX001 (ip), vehicle: saline sonified) and 100 % of control (dose: 50.0 mg/kg/injection, schedule: Q01DX001 (ip), vehicle: saline sonified).

As for `OCC1OC(n2ccc3c2ncn2ccnc32)C(O)C1O` (stereo unspecified), the T/C runs as follows: (dose: 25.0 mg/kg/injection, schedule: Q04DX003 (ip), vehicle: saline) 110 % of control; (dose: 50.0 mg/kg/injection, schedule: Q04DX003 (ip), vehicle: saline) 102 % of control; (dose: 100.0 mg/kg/injection, schedule: Q04DX003 (ip), vehicle: saline) 96 % of control; (dose: 200.0 mg/kg/injection, schedule: Q04DX003 (ip), vehicle: saline) 102 % of control.

Consider `Cc1ccc(C(=O)CCl)c(C)c1`, for which the T/C is 100 % of control under setting [2], 100 % of control under setting [12] and 95 % of control under setting [3].

As for `COc1cc(N=Nc2c[nH]c3ccccc23)c(OC)cc1N=Nc1ccc([N+](=O)[O-])cc1`, the T/C is, setting by setting: under setting [5], 92 % of control; under setting [6], 106 % of control; under setting [7], 111 % of control.

Take `CCCOn1nnc2cc(Cl)ccc21`: the T/C runs as follows: under setting [4], 100 % of control; under setting [11], 92 % of control.

For `CCC(C)(CCC(=O)O)c1ccccc1` (stereo unspecified), the T/C is 97 % of control (dose: 100.0 mg/kg/injection, schedule: Q04DX002 (ip), vehicle: saline with Tween-80); 103 % of control (dose: 200.0 mg/kg/injection, schedule: Q04DX002 (ip), vehicle: saline with Tween-80); 106 % of control (dose: 400.0 mg/kg/injection, schedule: Q04DX002 (ip), vehicle: saline with Tween-80).

Turning to `c1ccc(Nc2n[n+](-c3ccccc3)no2)cc1`, the T/C under setting [12] was 105 % of control; the T/C under setting [3] is 101 % of control; the T/C under setting [4] was 101 % of control and 104 % of control; the T/C under setting [8] was 107 % of control; the T/C under setting [11] is 88 % of control; the T/C under setting [9] is 106 % of control. Further, under setting [10], the T/C was 102 % of control.

Turning to `CCOC(=O)Cn1ccc(=O)[nH]c1=O`, the T/C is 100 % of control (dose: 75.0 mg/kg/injection, schedule: Q04DX003 (ip), vehicle: saline); 100 % of control (dose: 150.0 mg/kg/injection, schedule: Q04DX003 (ip), vehicle: saline); 100 % of control (dose: 300.0 mg/kg/injection, schedule: Q04DX003 (ip), vehicle: saline).

On to `CC(=O)N(N=Nc1ccccc1)c1cccc2ccccc12`, for which the T/C was 109 % of control and 113 % of control (dose: 25.0 mg/kg/injection, schedule: Q01DX009 (ip), vehicle: Klucel (hydroxypropylcellulose) (HPC)); 103 % of control (dose: 35.0 mg/kg/injection, schedule: Q01DX009 (ip), vehicle: Klucel (hydroxypropylcellulose) (HPC)); 107 % of control (dose: 50.0 mg/kg/injection, schedule: Q01DX009 (ip), vehicle: Klucel (hydroxypropylcellulose) (HPC)); 100 % of control (dose: 50.0 mg/kg/injection, schedule: Q04DX003 (ip), vehicle: Klucel (hydroxypropylcellulose) (HPC)); 110 % of control under setting [1].

Consider `O=Cc1[nH]c(=S)[nH]c(=O)c1Cc1cccc(Cl)c1`, for which the T/C is 115 % of control under setting [4], 113 % of control under setting [8], 118 % of control under setting [9] and 113 % of control under setting [10].

`CC(C)(O)c1ccccc1S(=O)c1ccc(Cl)cc1` (stereo unspecified): the T/C is 100 % of control under setting [3], 101 % of control under setting [4] and 99 % of control under setting [11].
